Measured values published in article PMC7083225 (Cell Chemical Biology, 2020).

Tests used:
[1] = biological target: human Nav1.7 (Homo sapiens, UniProt Q15858); test: Automated patch-clamp electrophysiology, CHO cells expressing Nav1.7; assay type: cell-based; conditions: SyncroPatch 768PE automated patch clamp; CHO stable cell line expressing human Nav1.7; holding -120 mV, 10 ms pulse to -10 mV every 2 s; 25 min compound; four-parameter Hill fit, each point n = 3-20; read-out: IC50 (nM), Nav1.7 inhibition
Method: The obtained photoprobes were evaluated in a patch-clamp assay using CHO cells expressing Nav1.7 (Figure 1D).
For electrophysiological recordings, the human Nav1.7 (XM_011511618) expressing CHO stable cell line (Anaxon, Switzerland) was cultured in Ham’s F12 medium supplemented with 10% FBS, 2 mM L-Glutamine and required selection antibiotic in 5% CO2 at 37°C.
For all Nav channel recordings, the intracellular solution contained (in mM): 50 CsCl, 60 CsF, 10 NaCl, 20 EGTA and 10 HEPES (pH 7.2, osmolarity 285 mOsm), and extracellular solution contained (in mM): 80 NaCl, 60 NMDG, 4 KCl, 2 CaCl2, 1 MgCl2, 5 glucose and 10 HEPES (pH 7.4, osmolarity 300 mOsm). Automated patch clamp (APC) recordings were performed by using SyncroPatch 768PE (Nanion Technologies, Germany), with PatchController384 V1.5.2 and DataController384 V1.5.0 software for pulse generation and data collection. Currents were sampled at 10 kHz and filtered with Bessel filter. Series resistance was compensated 80% with leak subtraction. Seal resistance (Rseal) was calculated using built-in protocols, and high-quality recoding data was obtained by auto filtering 3 quality control criteria: cell catching (>10 MΩ), seal resistance (>500 MΩ) and baseline current amplitude (>500 pA), and follow with manual inspection. The voltage protocol for all toxin pharmacological tests was set with holding membrane potential (Vm) at -120 mV, eliciting a 10 ms pulse to -10 mV every 2 s, recording 5 min for baseline and followed with examining compound effect for 25 min. Nav channel inhibition was calculated as the percentage of peak current (I) decrease from before compound application (I_Baseline) to the end of 25 minutes compound application (I_End) and both being normalized to the end of experiment full block current (I_Fullblock) using this following equation: Block%=[1−(Iend−Ifullblock/Ibaseline−Ifullblock)]×100%
All Nav channel inhibitions were presented as mean ± standard error of the mean from at least three independent trials.

[2] = biological target: the molecule itself; test: SEC; size-exclusion chromatography after anti-FLAG affinity purification, in GDN detergent

human Nav1.7, sequence (Q15858 1-1977 isoform Q15858-4): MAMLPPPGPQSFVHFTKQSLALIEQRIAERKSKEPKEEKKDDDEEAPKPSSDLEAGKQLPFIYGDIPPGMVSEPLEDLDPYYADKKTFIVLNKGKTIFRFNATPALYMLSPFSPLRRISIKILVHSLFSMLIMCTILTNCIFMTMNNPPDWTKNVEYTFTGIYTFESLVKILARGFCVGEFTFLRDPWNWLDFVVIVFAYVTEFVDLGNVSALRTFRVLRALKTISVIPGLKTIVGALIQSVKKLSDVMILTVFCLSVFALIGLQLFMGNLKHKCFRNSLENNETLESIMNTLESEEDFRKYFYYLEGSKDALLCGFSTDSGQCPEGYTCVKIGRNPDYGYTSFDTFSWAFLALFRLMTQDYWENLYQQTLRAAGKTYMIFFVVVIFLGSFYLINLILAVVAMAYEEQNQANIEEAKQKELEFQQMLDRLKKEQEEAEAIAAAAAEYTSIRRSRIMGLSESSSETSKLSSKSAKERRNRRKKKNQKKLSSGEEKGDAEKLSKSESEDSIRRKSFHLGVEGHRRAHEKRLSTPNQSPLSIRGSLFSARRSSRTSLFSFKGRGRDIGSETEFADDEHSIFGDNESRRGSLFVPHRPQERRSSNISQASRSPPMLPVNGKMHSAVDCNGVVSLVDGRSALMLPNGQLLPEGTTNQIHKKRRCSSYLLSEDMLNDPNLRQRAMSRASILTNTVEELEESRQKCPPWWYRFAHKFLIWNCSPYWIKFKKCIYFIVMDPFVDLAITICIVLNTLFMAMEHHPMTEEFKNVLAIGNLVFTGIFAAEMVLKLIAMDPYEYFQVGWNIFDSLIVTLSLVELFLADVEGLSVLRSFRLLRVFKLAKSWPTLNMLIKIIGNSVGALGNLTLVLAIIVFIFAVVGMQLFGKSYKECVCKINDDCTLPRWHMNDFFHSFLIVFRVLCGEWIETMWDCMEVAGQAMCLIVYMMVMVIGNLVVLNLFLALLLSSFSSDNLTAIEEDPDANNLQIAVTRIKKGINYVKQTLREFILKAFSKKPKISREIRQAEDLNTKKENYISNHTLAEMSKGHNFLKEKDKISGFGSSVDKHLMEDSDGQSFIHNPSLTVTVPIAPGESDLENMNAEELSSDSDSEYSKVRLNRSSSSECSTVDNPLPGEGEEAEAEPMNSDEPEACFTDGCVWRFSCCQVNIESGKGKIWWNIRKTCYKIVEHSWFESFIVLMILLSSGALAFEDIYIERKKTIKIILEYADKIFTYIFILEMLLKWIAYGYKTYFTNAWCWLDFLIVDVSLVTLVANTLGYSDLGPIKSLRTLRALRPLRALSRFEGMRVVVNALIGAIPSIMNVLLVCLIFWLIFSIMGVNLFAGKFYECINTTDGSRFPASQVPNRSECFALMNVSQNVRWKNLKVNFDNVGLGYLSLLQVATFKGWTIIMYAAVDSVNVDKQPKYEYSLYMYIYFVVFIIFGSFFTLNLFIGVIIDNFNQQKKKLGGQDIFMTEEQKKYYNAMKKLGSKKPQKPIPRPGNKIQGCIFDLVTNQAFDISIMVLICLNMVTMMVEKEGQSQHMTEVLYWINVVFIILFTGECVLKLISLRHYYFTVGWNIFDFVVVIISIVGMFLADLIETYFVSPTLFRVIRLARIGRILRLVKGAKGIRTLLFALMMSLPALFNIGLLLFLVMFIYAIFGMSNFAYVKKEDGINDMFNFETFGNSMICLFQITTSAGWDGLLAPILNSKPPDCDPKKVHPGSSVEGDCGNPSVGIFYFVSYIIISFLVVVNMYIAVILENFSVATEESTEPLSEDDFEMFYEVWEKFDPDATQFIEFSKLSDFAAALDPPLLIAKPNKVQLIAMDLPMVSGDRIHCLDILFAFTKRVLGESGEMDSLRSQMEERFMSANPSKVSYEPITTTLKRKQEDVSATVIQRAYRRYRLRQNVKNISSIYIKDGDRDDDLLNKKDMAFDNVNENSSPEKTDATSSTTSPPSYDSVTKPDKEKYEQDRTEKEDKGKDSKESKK

## CC[C@H](C)[C@@H]1NC(=O)[C@H](CCC(=O)O)NC(=O)[C@H](CC(C)C)NC(=O)[C@@H](NC(=O)[C@@H](N)CCC(=O)O)CSSC[C@@H]2NC(=O)[C@@H]3CSSC[C@@H](C(=O)N[C@@H](CCCCN)C(=O)N[C@@H](Cc4ccc(O)cc4)C(=O)N[C@@H](CCC(N)=O)C(=O)N[C@@H](CCC4(C)N=N4)C(N)=O)NC(=O)[C@H](Cc4c[nH]c5ccccc45)NC(=O)[C@H](CCCNC(=N)N)NC(=O)[C@H]([C@@H](C)O)NC(=O)[C@H](CCCCN)NC(=O)[C@H](CCCNC(=N)N)NC(=O)[C@H](CO)NC(=O)[C@H](CSSC[C@H](NC(=O)[C@H](C)NC(=O)[C@H](CCCCN)NC(=O)[C@H](Cc4ccccc4)NC1=O)C(=O)N[C@@H](CC(N)=O)C(=O)N1CCC[C@H]1C(=O)N[C@@H](CO)C(=O)N[C@@H](CC(N)=O)C(=O)N[C@@H](CC(=O)O)C(=O)N[C@@H](CCC(N)=O)C(=O)N3)NC(=O)[C@H](C(C)C)NC(=O)[C@H](CC(C)C)NC(=O)[C@H](CCCCN)NC(=O)[C@H](CO)NC(=O)[C@H](CO)NC(=O)[C@H](CCCCN)NC2=O [HTMp35]
[1]
  IC50: 13 nM

## CC[C@H](C)[C@H](NC(=O)[C@H](CCC(N)=O)NC(=O)[C@H](Cc1ccc(O)cc1)NC(=O)[C@H](CCCCN)NC(=O)[C@@H]1CSSC[C@@H]2NC(=O)[C@H](CCC(N)=O)NC(=O)[C@H](CC(=O)O)NC(=O)[C@H](CC(N)=O)NC(=O)[C@H](CO)NC(=O)[C@@H]3CCCN3C(=O)[C@H](CC(N)=O)NC(=O)[C@@H]3CSSC[C@H](NC(=O)[C@H](C(C)C)NC(=O)[C@H](CC(C)C)NC(=O)[C@H](CCCCN)NC(=O)[C@H](CO)NC(=O)[C@H](CO)NC(=O)[C@H](CCCCN)NC(=O)[C@H](CSSC[C@H](NC(=O)[C@@H](N)CCC(=O)O)C(=O)N[C@@H](CC(C)C)C(=O)N[C@@H](CCC(=O)O)C(=O)N[C@@H]([C@@H](C)CC)C(=O)N[C@@H](Cc4ccccc4)C(=O)N[C@@H](CCC4(C)N=N4)C(=O)N[C@@H](C)C(=O)N3)NC2=O)C(=O)N[C@@H](CO)C(=O)N[C@@H](CCCNC(=N)N)C(=O)N[C@@H](CCCCN)C(=O)N[C@@H]([C@@H](C)O)C(=O)N[C@@H](CCCNC(=N)N)C(=O)N[C@@H](Cc2c[nH]c3ccccc23)C(=O)N1)C(N)=O [HTMp7]
[1]
  IC50: 40 nM

## CC[C@H](C)[C@H](NC(=O)[C@H](CCC(N)=O)NC(=O)[C@H](Cc1ccc(O)cc1)NC(=O)[C@H](CCCCN)NC(=O)[C@@H]1CSSC[C@@H]2NC(=O)[C@H](CCC(N)=O)NC(=O)[C@H](CC(=O)O)NC(=O)[C@H](CC(N)=O)NC(=O)[C@H](CO)NC(=O)[C@@H]3CCCN3C(=O)[C@H](CC(N)=O)NC(=O)[C@@H]3CSSC[C@H](NC(=O)[C@H](C(C)C)NC(=O)[C@H](CC(C)C)NC(=O)[C@H](CCCCN)NC(=O)[C@H](CO)NC(=O)[C@H](CO)NC(=O)[C@H](CCCCN)NC(=O)[C@H](CSSC[C@H](NC(=O)[C@@H](N)CCC(=O)O)C(=O)N[C@@H](CC(C)C)C(=O)N[C@@H](CCC(=O)O)C(=O)N[C@@H]([C@@H](C)CC)C(=O)N[C@@H](Cc4ccccc4)C(=O)N[C@@H](CCCCN)C(=O)N[C@@H](C)C(=O)N3)NC2=O)C(=O)N[C@@H](CO)C(=O)N[C@@H](CCCNC(=N)N)C(=O)N[C@@H](CCCCN)C(=O)N[C@@H]([C@@H](C)O)C(=O)N[C@@H](CCC2(C)N=N2)C(=O)N[C@@H](Cc2c[nH]c3ccccc23)C(=O)N1)C(N)=O [HTMp29]
[1]
  IC50: 68 nM

## CC[C@H](C)[C@H](NC(=O)[C@H](CCC(N)=O)NC(=O)[C@H](Cc1ccc(O)cc1)NC(=O)[C@H](CCCCN)NC(=O)[C@@H]1CSSC[C@@H]2NC(=O)[C@H](CCC(N)=O)NC(=O)[C@H](CC(=O)O)NC(=O)[C@H](CC(N)=O)NC(=O)[C@H](CO)NC(=O)[C@@H]3CCCN3C(=O)[C@H](CC(N)=O)NC(=O)[C@@H]3CSSC[C@H](NC(=O)[C@H](C(C)C)NC(=O)[C@H](CC(C)C)NC(=O)[C@H](CCCCN)NC(=O)[C@H](CO)NC(=O)[C@H](CO)NC(=O)[C@H](CCCCN)NC(=O)[C@H](CSSC[C@H](NC(=O)[C@@H](N)CCC(=O)O)C(=O)N[C@@H](CC(C)C)C(=O)N[C@@H](CCC(=O)O)C(=O)N[C@@H]([C@@H](C)CC)C(=O)N[C@@H](Cc4ccccc4)C(=O)N[C@@H](CCCCN)C(=O)N[C@@H](C)C(=O)N3)NC2=O)C(=O)N[C@@H](CO)C(=O)N[C@@H](CCCNC(=N)N)C(=O)N[C@@H](CCC2(C)N=N2)C(=O)N[C@@H]([C@@H](C)O)C(=O)N[C@@H](CCCNC(=N)N)C(=O)N[C@@H](Cc2c[nH]c3ccccc23)C(=O)N1)C(N)=O [HTMp27]
[1]
  IC50: 80 nM

## CC[C@H](C)[C@H](NC(=O)[C@H](CCC(N)=O)NC(=O)[C@H](Cc1ccc(O)cc1)NC(=O)[C@H](CCCCN)NC(=O)[C@@H]1CSSC[C@@H]2NC(=O)[C@H](CCC(N)=O)NC(=O)[C@H](CC(=O)O)NC(=O)[C@H](CC(N)=O)NC(=O)[C@H](CO)NC(=O)[C@@H]3CCCN3C(=O)[C@H](CC(N)=O)NC(=O)[C@@H]3CSSC[C@H](NC(=O)[C@H](C(C)C)NC(=O)[C@H](CC(C)C)NC(=O)[C@H](CCCCN)NC(=O)[C@H](CO)NC(=O)[C@H](CO)NC(=O)[C@H](CCCCN)NC(=O)[C@H](CSSC[C@H](NC(=O)[C@@H](N)CCC(=O)O)C(=O)N[C@@H](CC(C)C)C(=O)N[C@@H](CCC(=O)O)C(=O)N[C@@H](CCC4(C)N=N4)C(=O)N[C@@H](Cc4ccccc4)C(=O)N[C@@H](CCCCN)C(=O)N[C@@H](C)C(=O)N3)NC2=O)C(=O)N[C@@H](CO)C(=O)N[C@@H](CCCNC(=N)N)C(=O)N[C@@H](CCCCN)C(=O)N[C@@H]([C@@H](C)O)C(=O)N[C@@H](CCCNC(=N)N)C(=O)N[C@@H](Cc2c[nH]c3ccccc23)C(=O)N1)C(N)=O [HTMp5]
[1]
  IC50: 41 nM

## CC[C@H](C)[C@H](NC(=O)[C@H](CCC(N)=O)NC(=O)[C@H](Cc1ccc(O)cc1)NC(=O)[C@H](CCCCN)NC(=O)[C@@H]1CSSC[C@@H]2NC(=O)[C@H](CCC(N)=O)NC(=O)[C@H](CC(=O)O)NC(=O)[C@H](CC(N)=O)NC(=O)[C@H](CO)NC(=O)[C@@H]3CCCN3C(=O)[C@H](CC(N)=O)NC(=O)[C@@H]3CSSC[C@H](NC(=O)[C@H](C(C)C)NC(=O)[C@H](CC(C)C)NC(=O)[C@H](CCC4(C)N=N4)NC(=O)[C@H](CO)NC(=O)[C@H](CO)NC(=O)[C@H](CCCCN)NC(=O)[C@H](CSSC[C@H](NC(=O)[C@@H](N)CCC(=O)O)C(=O)N[C@@H](CC(C)C)C(=O)N[C@@H](CCC(=O)O)C(=O)N[C@@H]([C@@H](C)CC)C(=O)N[C@@H](Cc4ccccc4)C(=O)N[C@@H](CCCCN)C(=O)N[C@@H](C)C(=O)N3)NC2=O)C(=O)N[C@@H](CO)C(=O)N[C@@H](CCCNC(=N)N)C(=O)N[C@@H](CCCCN)C(=O)N[C@@H]([C@@H](C)O)C(=O)N[C@@H](CCCNC(=N)N)C(=O)N[C@@H](Cc2c[nH]c3ccccc23)C(=O)N1)C(N)=O [HTMp21]
[1]
  IC50: 35 nM

B1: VSD2-NavAb chimeric channel (hNav1.7 VSD2 sequences fused to a NavAb scaffold) (other)
chain: MYLRITNIVESSFFTKFIIYLIVLNTLFMAMEHHPMTEEFKNVLAIGNLVFTGIFAIEIILRIYVHRISFFKDPWSLFDSLIVTLSLVELFLADVEGLSVLRSFRLLRVFRLVTAVPQMRKIVSALISVIPGMLSVIALMTLFFYIFAIMATQLFGERFPEWFGTLGESFYTLFQVMTLESWSMGIVRPLMEVYPYAWVFFIPFIFVVTFVMINLVVAICVDAMAILNQKEEQHIIDEVQSHEDNINNEIIKLREEIVELKELIKTSLKN
notes: not shown: FLAG, N-terminal, kept
[2]
  binding result: binds
